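Step 1: Grow cells in 96-well plates. Step 2: Expose to compound for 48 hours at 5 concentrations. Step 3: Interpolate endpoints linearly; if unreached, use highest concentration. GI50 = concentration required for 50% inhibition of growth.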 Activity calls are given as the source filed them. No stated cut-off is given here; in the data, active = GI50 up to about 1.1 µM and inactive = higher.
Experiments:
Assay in all cases: NCI-60 cell line screen, 48 h
[1] = tested on: UACC-62
[2] = tested on: Hs-578T
[3] = tested on: K562
[4] = tested on: TK-10
[5] = tested on: HT-29
[6] = tested on: MDA-MB-231
[7] = tested on: HCC 2998
[8] = tested on: OVCAR-5
[9] = tested on: SNB-75
[10] = tested on: COLO 205
[11] = tested on: SN12C
[12] = tested on: Malme-3M
[13] = tested on: MOLT-4
[14] = tested on: SF-295
[15] = tested on: DU-145
[16] = tested on: 786-0
[17] = tested on: NCI/ADR-RES
[18] = tested on: RXF 393
[19] = tested on: LOX IMVI
[20] = tested on: HOP-92

Row | SMILES | GI50 [1] | GI50 [2] | GI50 [3] | GI50 [4] | GI50 [5] | GI50 [6] | GI50 [7] | GI50 [8] | GI50 [9] | GI50 [10] | GI50 [11] | GI50 [12] | GI50 [13] | GI50 [14] | GI50 [15] | GI50 [16] | GI50 [17] | GI50 [18] | GI50 [19] | GI50 [20]
1 | CN(C)CCNC(=O)c1cccc(CO)c1[N+](=O)[O-] | > 100 µM (inactive) | > 100 µM (inactive) | > 100 µM (inactive) | > 100 µM (inactive) | > 100 µM (inactive) | > 100 µM (inactive) | > 100 µM (inactive) | > 100 µM (inactive) | 75 µM (inactive) | > 100 µM (inactive) | > 100 µM (inactive) | > 100 µM (inactive) | > 100 µM (inactive) | > 100 µM (inactive) | > 100 µM (inactive) | > 100 µM (inactive) | > 100 µM (inactive) |  |  | 
2 | C1CSCCCSCCSCCCSC1 | > 100 µM (inactive) | > 100 µM (inactive) | > 100 µM (inactive) | > 100 µM (inactive) | > 100 µM (inactive) | > 100 µM (inactive) | > 100 µM (inactive) | > 100 µM (inactive) | > 100 µM (inactive) | > 100 µM (inactive) | > 100 µM (inactive) |  | > 100 µM (inactive) | > 100 µM (inactive) | > 100 µM (inactive) | > 100 µM (inactive) |  | > 100 µM (inactive) | > 100 µM (inactive) | > 100 µM (inactive)
3 | COCC1OCCN1C (configuration not stated) | > 100 µM (inactive) | > 100 µM (inactive) | > 100 µM (inactive) | > 100 µM (inactive) | > 100 µM (inactive) | > 100 µM (inactive) |  | > 100 µM (inactive) | > 100 µM (inactive) | > 100 µM (inactive) |  | > 100 µM (inactive) | > 100 µM (inactive) | > 100 µM (inactive) |  | > 100 µM (inactive) | > 100 µM (inactive) | > 100 µM (inactive) | > 100 µM (inactive) | > 100 µM (inactive)
4 | CN(/N=C/c1cccs1)c1ccc([N+](=O)[O-])cc1[N+](=O)[O-] | > 100 µM (inactive) | > 100 µM (inactive) | > 100 µM (inactive) | > 100 µM (inactive) | > 100 µM (inactive) | > 100 µM (inactive) | > 100 µM (inactive) |  | 77.8 µM (inactive) | > 100 µM (inactive) | > 100 µM (inactive) |  | > 100 µM (inactive) | > 100 µM (inactive) | > 100 µM (inactive) | > 100 µM (inactive) | > 100 µM (inactive) | > 100 µM (inactive) |  | 
5 | CC(=O)OCC(OC(C)=O)C(OC(C)=O)C(OC(C)=O)C(C=NN(C(C)=O)S(=O)(=O)c1ccc(/C=C2\NC(=O)N(C)C2=O)cc1)OC(C)=O (configuration not stated) | 13.6 µM (inactive) | 32.9 µM (inactive) | 21.4 µM (inactive) | 3.35 µM (inactive) | 34.9 µM (inactive) | 36.1 µM (inactive) | 30.5 µM (inactive) | 83.2 µM (inactive) | 33.7 µM (inactive) | 26.2 µM (inactive) | 27.8 µM (inactive) | 25.5 µM (inactive) |  | 95.9 µM (inactive) | 33 µM (inactive) | 22.1 µM (inactive) | > 100 µM (inactive) | 20.5 µM (inactive) | 21.8 µM (inactive) | 
6 | O=c1c2ccccc2nc(N/N=C/c2ccc([N+](=O)[O-])cc2)n1-c1ccccc1 | 27 µM (inactive) | 6.35 µM (inactive) | 52.1 µM (inactive) | 18 µM (inactive) | > 100 µM (inactive) | 11.7 µM (inactive) |  | > 100 µM (inactive) | 7.93 µM (inactive) | > 100 µM (inactive) | 91 µM (inactive) | 35.9 µM (inactive) | 77.3 µM (inactive) | 4.35 µM (inactive) | 26.9 µM (inactive) | 5.37 µM (inactive) | 13.4 µM (inactive) | 7.87 µM (inactive) | 3.08 µM (inactive) | 
7 | COC(C)(C)[C@@H]1CCCN1C1=C(C)C(=O)OC1 | > 100 µM (inactive) | > 100 µM (inactive) | > 100 µM (inactive) |  |  | > 100 µM (inactive) | > 100 µM (inactive) | > 100 µM (inactive) | > 10 µM (inactive) | > 100 µM (inactive) | > 100 µM (inactive) | > 100 µM (inactive) | > 100 µM (inactive) | > 100 µM (inactive) | > 100 µM (inactive) | > 100 µM (inactive) | > 100 µM (inactive) | > 100 µM (inactive) | > 100 µM (inactive) | 
8 | Cc1ccc(/N=N/N(C)C(C)C(O)Cc2ccccc2)cc1 (configuration not stated) | 52.1 µM (inactive) | 41.9 µM (inactive) | 39.3 µM (inactive) | 29 µM (inactive) | 80.4 µM (inactive) | 52.7 µM (inactive) | 53.3 µM (inactive) | > 100 µM (inactive) | 43.9 µM (inactive) | 40.9 µM (inactive) | 27.9 µM (inactive) | > 100 µM (inactive) | 33.7 µM (inactive) | 38.3 µM (inactive) | 52.1 µM (inactive) | 59.4 µM (inactive) | 40.4 µM (inactive) | 40.6 µM (inactive) |  | 
9 | COc1ccccc1NC(=O)C(=O)C(C#N)CC(C)(C)C=O (configuration not stated) | > 100 µM (inactive) | > 100 µM (inactive) | > 100 µM (inactive) | > 100 µM (inactive) | > 100 µM (inactive) | > 100 µM (inactive) | > 100 µM (inactive) | > 100 µM (inactive) | > 100 µM (inactive) |  | > 100 µM (inactive) | > 100 µM (inactive) | > 100 µM (inactive) | > 100 µM (inactive) |  | > 100 µM (inactive) | > 100 µM (inactive) | > 100 µM (inactive) | > 100 µM (inactive) | > 100 µM (inactive)
10 | COc1cccc2c1C(=O)c1c(O)c3c(c(O)c1C2=O)C[C@@](O)(C(=O)CO)C[C@@H]3OC1CC(N(C)C)C(O)C(C)O1 (some centres not stated) | < 0.012 µM (active) | < 0.01 µM (active) | 0.0583 µM (active) | 0.0303 µM (active) | < 0.01 µM (active) | 0.0528 µM (active) | 0.0675 µM (active) | 0.0643 µM (active) | 0.0155 µM (active) | < 0.01 µM (active) | 0.0189 µM (active) | < 0.0142 µM (active) | 0.0159 µM (active) | < 0.01 µM (active) | 0.0519 µM (active) | < 0.0197 µM (active) |  | 0.0138 µM (active) | < 0.01 µM (active) | 0.031 µM (active)
11 | N#Cc1cnn2cc[nH]c12 | > 100 µM (inactive) | > 100 µM (inactive) | > 100 µM (inactive) | > 100 µM (inactive) | > 100 µM (inactive) | > 100 µM (inactive) | > 100 µM (inactive) | > 100 µM (inactive) | > 100 µM (inactive) | > 100 µM (inactive) | > 100 µM (inactive) |  | > 100 µM (inactive) | > 100 µM (inactive) | > 100 µM (inactive) | > 100 µM (inactive) | > 100 µM (inactive) |  |  | 
